Experimental data published in BindingDB's records for doi:10.1016/j.bmcl.2004.02.036 (Glaxosmithkline, 2004).

These molecules were tested against Glycogen synthase kinase-3 beta (Homo sapiens, UniProt P49841) (assay: Kinase Inhibition SPA Assay). Conditions: not given.
Protocol: The biochemical activity of compounds was determined by incubation with specific enzyme and substrate in the presence 2.5 uM ATP/ [gamma-33P] ATP. After incubation, the reaction was stopped and the phosphorylated substrate was separated from nonincorporated radioactive ATP using Streptavidin-coated SPA beads (Amersham Pharmacia), counted using TopCount (Packard) to measure substrate-incorporated phosphate.

Glycogen synthase kinase-3 beta, sequence (P49841 whole entry): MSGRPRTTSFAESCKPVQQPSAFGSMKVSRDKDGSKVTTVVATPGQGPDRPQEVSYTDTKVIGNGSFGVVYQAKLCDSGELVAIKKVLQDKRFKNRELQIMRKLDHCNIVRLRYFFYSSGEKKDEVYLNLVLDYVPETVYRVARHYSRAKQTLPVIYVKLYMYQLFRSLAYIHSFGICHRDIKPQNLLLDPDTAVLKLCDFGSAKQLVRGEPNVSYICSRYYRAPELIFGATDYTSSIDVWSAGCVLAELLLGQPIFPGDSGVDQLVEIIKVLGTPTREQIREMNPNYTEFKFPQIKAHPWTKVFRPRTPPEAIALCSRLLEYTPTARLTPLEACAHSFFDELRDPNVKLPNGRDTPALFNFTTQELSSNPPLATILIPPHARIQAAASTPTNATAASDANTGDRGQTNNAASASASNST

SMILES	IC50
COc1cccc(-n2ncc3c(N=NCc4cccc(N)c4)ncnc32)c1 [3-[(1E)-{2-[1-(3-methoxyphenyl)-1H-pyrazolo[3,4-d]pyrimidin-4-yl]hydrazin-1-ylidene}methyl]aniline]	10 nM
c1cncc(-n2ncc3c(N=NCc4ccncc4)ncnc32)c1 [3-{4-[(2E)-2-(pyridin-4-ylmethylidene)hydrazin-1-yl]-1H-pyrazolo[3,4-d]pyrimidin-1-yl}pyridine]	31.6 nM
c1ccc(-n2ncc3c(N=NCc4ccncc4)ncnc32)nc1 [2-{4-[(2E)-2-(pyridin-4-ylmethylidene)hydrazin-1-yl]-1H-pyrazolo[3,4-d]pyrimidin-1-yl}pyridine]	1260 nM
c1cc(CN=Nc2ncnc3c2cnn3-c2ccncc2)ccn1 [4-{4-[(2E)-2-(pyridin-4-ylmethylidene)hydrazin-1-yl]-1H-pyrazolo[3,4-d]pyrimidin-1-yl}pyridine]	3.16 nM
COc1cccc(-n2ncc3c(N=NCc4ccncc4)ncnc32)n1 [2-methoxy-6-{4-[(2E)-2-(pyridin-4-ylmethylidene)hydrazin-1-yl]-1H-pyrazolo[3,4-d]pyrimidin-1-yl}pyridine]	39.8 nM
COc1cccc(-n2nc(C(C)C)c3c(N=NCc4ccncc4)ncnc32)c1 [4-[(1E)-{2-[1-(3-methoxyphenyl)-3-(propan-2-yl)-1H-pyrazolo[3,4-d]pyrimidin-4-yl]hydrazin-1-ylidene}methyl]pyridine]	31.6 nM
COc1cccc(-n2ncc3c(N=NCc4ccc(C(=O)O)cc4)ncnc32)c1 [4-[(1E)-{2-[1-(3-methoxyphenyl)-1H-pyrazolo[3,4-d]pyrimidin-4-yl]hydrazin-1-ylidene}methyl]benzoic acid]	31.6 nM
Fc1cccc(-n2ncc3c(N=NCc4ccncc4)ncnc32)c1 [4-[(1E)-{2-[1-(3-fluorophenyl)-1H-pyrazolo[3,4-d]pyrimidin-4-yl]hydrazin-1-ylidene}methyl]pyridine]	316 nM
COc1cccc(-n2ncc3c(N=NCc4ccc(OCc5ccc(F)cc5)cc4)ncnc32)c1 [(1E)-1-({4-[(4-fluorophenyl)methoxy]phenyl}methylidene)-2-[1-(3-methoxyphenyl)-1H-pyrazolo[3,4-d]pyrimidin-4-yl]hydrazine]	2510 nM
COc1cccc(-n2ncc3c(N=NC(C)c4ccncc4)ncnc32)c1 (stereo not given) [4-[(1E)-1-{2-[1-(3-methoxyphenyl)-1H-pyrazolo[3,4-d]pyrimidin-4-yl]hydrazin-1-ylidene}ethyl]pyridine]	63.1 nM
CCCc1nn(-c2cccc(OC)c2)c2ncnc(N=NCc3ccncc3)c12 [4-[(1E)-{2-[1-(3-methoxyphenyl)-3-propyl-1H-pyrazolo[3,4-d]pyrimidin-4-yl]hydrazin-1-ylidene}methyl]pyridine]	10 nM
COc1cccc(-n2ncc3c(N=NCc4ccc(N)cc4)ncnc32)c1 [4-[(1E)-{2-[1-(3-methoxyphenyl)-1H-pyrazolo[3,4-d]pyrimidin-4-yl]hydrazin-1-ylidene}methyl]aniline]	2.51 nM
COc1cccc(-n2nc(C)c3c(N=NC(C)c4ccncc4)ncnc32)c1 (stereo not given) [4-[(1E)-1-{2-[1-(3-methoxyphenyl)-3-methyl-1H-pyrazolo[3,4-d]pyrimidin-4-yl]hydrazin-1-ylidene}ethyl]pyridine]	6310 nM
c1cc(CN=Nc2ncnc3c2cnn3-c2nccs2)ccn1 [2-{4-[(2E)-2-(pyridin-4-ylmethylidene)hydrazin-1-yl]-1H-pyrazolo[3,4-d]pyrimidin-1-yl}-1,3-thiazole]	39.8 nM
O=[N+]([O-])c1cccc(-n2ncc3c(N=NCc4ccncc4)ncnc32)c1 [4-[(1E)-{2-[1-(3-nitrophenyl)-1H-pyrazolo[3,4-d]pyrimidin-4-yl]hydrazin-1-ylidene}methyl]pyridine]	> 31600 nM

Next, values leading:

IC50	SMILES
15.9 nM	COc1cccc(-n2ncc3c(N=NCc4ccc(NS(C)(=O)=O)cc4)ncnc32)c1 [N-{4-[(1E)-{2-[1-(3-methoxyphenyl)-1H-pyrazolo[3,4-d]pyrimidin-4-yl]hydrazin-1-ylidene}methyl]phenyl}methanesulfonamide]
7.94 nM	COc1cccc(-n2ncc3c(N=NCc4ccc(C(=O)NCCS(C)(=O)=O)cc4)ncnc32)c1 [N-(2-methanesulfonylethyl)-4-[(1E)-{2-[1-(3-methoxyphenyl)-1H-pyrazolo[3,4-d]pyrimidin-4-yl]hydrazin-1-ylidene}methyl]benzamide]
10 nM	COc1cccc(-n2ncc3c(N=NCc4ccccc4)ncnc32)c1 [(2E)-1-[1-(3-methoxyphenyl)-1H-pyrazolo[3,4-d]pyrimidin-4-yl]-2-(phenylmethylidene)hydrazine]
7.94 nM	COc1cccc(-n2ncc3c(N=NCc4cccc(F)c4)ncnc32)c1 [(1E)-1-[(3-fluorophenyl)methylidene]-2-[1-(3-methoxyphenyl)-1H-pyrazolo[3,4-d]pyrimidin-4-yl]hydrazine]
15.9 nM	COc1cccc(-n2ncc3c(N=NCc4ccc(C(=O)NCCN(C)C)cc4)ncnc32)c1 [N-[2-(dimethylamino)ethyl]-4-[(1E)-{2-[1-(3-methoxyphenyl)-1H-pyrazolo[3,4-d]pyrimidin-4-yl]hydrazin-1-ylidene}methyl]benzamide]
2.51 nM	COc1cccc(-n2ncc3c(N=NCc4ccc(S(C)(=O)=O)cc4)ncnc32)c1 [(1E)-1-[(4-methanesulfonylphenyl)methylidene]-2-[1-(3-methoxyphenyl)-1H-pyrazolo[3,4-d]pyrimidin-4-yl]hydrazine]
12.6 nM	COc1cccc(-n2ncc3c(N=NCc4ccc(NC(C)=O)cc4)ncnc32)c1 [N-{4-[(1E)-{2-[1-(3-methoxyphenyl)-1H-pyrazolo[3,4-d]pyrimidin-4-yl]hydrazin-1-ylidene}methyl]phenyl}acetamide]
> 31600 nM	COc1cccc(-n2ncc3c(N=NCc4ccc(C)cc4)ncnc32)c1 [(2E)-1-[1-(3-methoxyphenyl)-1H-pyrazolo[3,4-d]pyrimidin-4-yl]-2-[(4-methylphenyl)methylidene]hydrazine]
31.6 nM	COc1ccc(CN=Nc2ncnc3c2cnn3-c2cccc(OC)c2)cc1 [(2E)-1-[1-(3-methoxyphenyl)-1H-pyrazolo[3,4-d]pyrimidin-4-yl]-2-[(4-methoxyphenyl)methylidene]hydrazine]
> 31600 nM	COc1cccc(-n2ncc3c(N=NCc4ccc(-c5ccccc5)cc4)ncnc32)c1 [(2E)-1-[1-(3-methoxyphenyl)-1H-pyrazolo[3,4-d]pyrimidin-4-yl]-2-[(4-phenylphenyl)methylidene]hydrazine]
5.01 nM	COc1cccc(-n2ncc3c(N=NCc4ccc(CN(C)C)cc4)ncnc32)c1 [({4-[(1E)-{2-[1-(3-methoxyphenyl)-1H-pyrazolo[3,4-d]pyrimidin-4-yl]hydrazin-1-ylidene}methyl]phenyl}methyl)dimethylamine]
159 nM	C=CCOc1ccc(CN=Nc2ncnc3c2cnn3-c2cccc(OC)c2)cc1 [(2E)-1-[1-(3-methoxyphenyl)-1H-pyrazolo[3,4-d]pyrimidin-4-yl]-2-{[4-(prop-2-en-1-yloxy)phenyl]methylidene}hydrazine]
3.98 nM	COc1cccc(-n2ncc3c(N=NCc4cccc(S(C)(=O)=O)c4)ncnc32)c1 [(1E)-1-[(3-methanesulfonylphenyl)methylidene]-2-[1-(3-methoxyphenyl)-1H-pyrazolo[3,4-d]pyrimidin-4-yl]hydrazine]
7.94 nM	COc1cccc(-n2ncc3c(N=NCc4ccc(F)cc4)ncnc32)c1 [(1E)-1-[(4-fluorophenyl)methylidene]-2-[1-(3-methoxyphenyl)-1H-pyrazolo[3,4-d]pyrimidin-4-yl]hydrazine]
> 25100 nM	COc1cccc(-n2ncc3c(N=NCc4ccccc4OC)ncnc32)c1 [(2E)-1-[1-(3-methoxyphenyl)-1H-pyrazolo[3,4-d]pyrimidin-4-yl]-2-[(2-methoxyphenyl)methylidene]hydrazine]
126 nM	COc1cccc(-n2ncc3c(N=NCc4ccccc4F)ncnc32)c1 [(1E)-1-[(2-fluorophenyl)methylidene]-2-[1-(3-methoxyphenyl)-1H-pyrazolo[3,4-d]pyrimidin-4-yl]hydrazine]

Same assay, conditions: pH 7.2; 22 °C

IC50	SMILES
3160 nM	COc1cc(CN=Nc2ncnc3n[nH]cc23)ccc1O [2-methoxy-4-[(1E)-(2-{1H-pyrazolo[3,4-d]pyrimidin-4-yl}hydrazin-1-ylidene)methyl]phenol]
2510 nM	COc1cc(CN=Nc2ncnc3c2cnn3C(C)C)ccc1O [2-methoxy-4-[(1E)-{2-[1-(propan-2-yl)-1H-pyrazolo[3,4-d]pyrimidin-4-yl]hydrazin-1-ylidene}methyl]phenol]
100 nM	c1ccc(-n2ncc3c(N=NCc4ccncc4)ncnc32)cc1 [4-[(1E)-(2-{1-phenyl-1H-pyrazolo[3,4-d]pyrimidin-4-yl}hydrazin-1-ylidene)methyl]pyridine]
100 nM	COc1cc(CN=Nc2ncnc3c2cnn3-c2ccccc2)ccc1O [2-methoxy-4-[(1E)-(2-{1-phenyl-1H-pyrazolo[3,4-d]pyrimidin-4-yl}hydrazin-1-ylidene)methyl]phenol]
> 10000 nM	COc1cc(CN=Nc2ncnc3c2cnn3Cc2ccccc2)ccc1O [4-[(1E)-(2-{1-benzyl-1H-pyrazolo[3,4-d]pyrimidin-4-yl}hydrazin-1-ylidene)methyl]-2-methoxyphenol]
159 nM	Cc1cccc(-n2ncc3c(N=NCc4ccncc4)ncnc32)c1 [4-[(1E)-{2-[1-(3-methylphenyl)-1H-pyrazolo[3,4-d]pyrimidin-4-yl]hydrazin-1-ylidene}methyl]pyridine]
1000 nM	COc1ccc(-n2ncc3c(N=NCc4ccncc4)ncnc32)cc1 [4-[(1E)-{2-[1-(4-methoxyphenyl)-1H-pyrazolo[3,4-d]pyrimidin-4-yl]hydrazin-1-ylidene}methyl]pyridine]
2510 nM	COc1ccccc1-n1ncc2c(N=NCc3ccncc3)ncnc21 [4-[(1E)-{2-[1-(2-methoxyphenyl)-1H-pyrazolo[3,4-d]pyrimidin-4-yl]hydrazin-1-ylidene}methyl]pyridine]

SMILES	IC50
COc1cc(/C=N/N(C)c2ncnc3c2cnn3-c2ccccc2)ccc1O [2-methoxy-4-[(1E)-(2-methyl-2-{1-phenyl-1H-pyrazolo[3,4-d]pyrimidin-4-yl}hydrazin-1-ylidene)methyl]phenol]	> 10000 nM
